Experimental data from patent publication US12077503B2, “Substituted cyclic amides and their use as herbicides” (FMC CORPORATION, priority 2015, dated 2024).

What was measured:
Assay type in all cases: in vivo
Kochia (Kochia scoparia) [1] = test: Test A preemergence; conditions: Preemergence; for Plant response rating, Kochia: 125 g ai/ha, visual injury after approximately 10 d, 0 to 100 scale where 0 is no effect and 100 is complete control; for Kochia plant response rating (0 to 100 scale, 0 is no effect, 100 is complete control): 500 g ai/ha, visual injury approx. 10 d
Summary of the method: (§1)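 Preemergence directed soil spray on seeded pots, or postemergence application to plants 2–10 cm, one- to two-leaf. Solvent mixture non-phytotoxic, with surfactant. Scored ~10 d later, visually, 0–100 vs untreated.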

[2] = system: barnyardgrass (Echinochloa crus-galli); test: Test A preemergence; conditions: Preemergence; for Plant response rating, Barnyardgrass: 125 g ai/ha, visual injury after approximately 10 d, 0 to 100 scale where 0 is no effect and 100 is complete control; for Barnyardgrass plant response rating (0 to 100 scale, 0 is no effect, 100 is complete control): 500 g ai/ha, visual injury approx. 10 d
Summary of the method: as §1

[3] = system: giant foxtail (Setaria faberii); test: Test A preemergence; conditions: Preemergence; for Plant response rating, Foxtail, Giant: 125 g ai/ha, visual injury after approximately 10 d, 0 to 100 scale where 0 is no effect and 100 is complete control; for Foxtail, Giant plant response rating (0 to 100 scale, 0 is no effect, 100 is complete control): 500 g ai/ha, visual injury approx. 10 d
Summary of the method: as §1

[4] = system: pigweed (Amaranthus retroflexus); test: Test A preemergence; conditions: Preemergence; for Plant response rating, Pigweed: 125 g ai/ha, visual injury after approximately 10 d, 0 to 100 scale where 0 is no effect and 100 is complete control; for Pigweed plant response rating (0 to 100 scale, 0 is no effect, 100 is complete control): 500 g ai/ha, visual injury approx. 10 d
[5] = system: ragweed (common ragweed, Ambrosia elatior); test: Test A preemergence; conditions: Preemergence; for Plant response rating, Ragweed: 125 g ai/ha, visual injury after approximately 10 d, 0 to 100 scale where 0 is no effect and 100 is complete control; for Ragweed plant response rating (0 to 100 scale, 0 is no effect, 100 is complete control): 500 g ai/ha, visual injury approx. 10 d
Summary of the method: as §1

[6] = system: ryegrass, Italian (Italian ryegrass, Lolium multiflorum); test: Test A preemergence; conditions: Preemergence; for Plant response rating, Ryegrass, Italian: 125 g ai/ha, visual injury after approximately 10 d, 0 to 100 scale where 0 is no effect and 100 is complete control; for Ryegrass, Italian plant response rating (0 to 100 scale, 0 is no effect, 100 is complete control): 500 g ai/ha, visual injury approx. 10 d
Summary of the method: as §1

[7] = system: Galium (catchweed bedstraw, Galium aparine); test: Test A postemergence
Summary of the method: as §1

Kochia (Kochia scoparia) [8] = test: Test A postemergence
Summary of the method: as §1

[9] = system: barnyardgrass (Echinochloa crus-galli); test: Test A postemergence
Summary of the method: as §1

[10] = system: blackgrass (Alopecurus myosuroides); test: Test A postemergence
Summary of the method: as §1

corn (Zea mays) = test: Test A postemergence
Summary of the method: as §1

[11] = system: giant foxtail (Setaria faberii); test: Test A postemergence
Summary of the method: as §1

[12] = system: pigweed (Amaranthus retroflexus); test: Test A postemergence
Summary of the method: as §1

[13] = system: ragweed (common ragweed, Ambrosia elatior); test: Test A postemergence
Summary of the method: as §1

[14] = system: ryegrass, Italian (Italian ryegrass, Lolium multiflorum); test: Test A postemergence
Summary of the method: as §1

[15] = system: wheat (Triticum aestivum); test: Test A postemergence
Summary of the method: as §1

[16] = system: barnyardgrass (Echinochloa crus-galli); test: Test B flooded paddy test; conditions: Flood, 250 g ai/ha; 0 to 100 scale where 0 is no effect and 100 is complete control; 13 to 15 d
Summary of the method: (§2)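 Plants at 2-leaf stage flooded to 3 cm above soil, with compounds applied directly to paddy water and that depth maintained. Plants kept in greenhouse 13–15 d. Visual rating versus controls on a 0 (no effect) to 100 (complete control) scale.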

[17] = system: ducksalad (Heteranthera limosa); test: Test B flooded paddy test; conditions: Flood, 250 g ai/ha; 0 to 100 scale where 0 is no effect and 100 is complete control; 13 to 15 d
Summary of the method: as §2

rice (Oryra sativa) = test: Test B flooded paddy test; conditions: Flood, 250 g ai/ha; 0 to 100 scale where 0 is no effect and 100 is complete control; 13 to 15 d
Summary of the method: as §2

[18] = system: sedge, umbrella (small-flower umbrella sedge, Cyperus difformis); test: Test B flooded paddy test; conditions: Flood, 250 g ai/ha; 0 to 100 scale where 0 is no effect and 100 is complete control; 13 to 15 d
Summary of the method: as §2

[19] = 125 g ai/ha, postemergence, visual injury rating on 0 to 100 scale (0 no effect, 100 complete control), approx. 10 d
[20] = Postemergence, 500 g ai/ha, 0 to 100 scale where 0 is no effect and 100 is complete control
[21] = 125 g ai/ha, postemergence, visual rating after approx. 10 d, 0 to 100 scale (0 no effect, 100 complete control)

O=C1NCC(c2ccc(C(F)(F)F)c(F)c2)C1C(=O)Nc1ccc(F)cc1F (racemic) [Compound 522]
Plant response rating, Kochia (Kochia (Kochia scoparia) [1]): 60
Kochia plant response rating (0 to 100 scale, 0 is no effect, 100 is complete control) (Kochia (Kochia scoparia) [1]): 60
Plant response rating, Barnyardgrass [2]: 90
Barnyardgrass plant response rating (0 to 100 scale, 0 is no effect, 100 is complete control) [2]: 90
Plant response rating, Foxtail, Giant [3]: 90
Foxtail, Giant plant response rating (0 to 100 scale, 0 is no effect, 100 is complete control) [3]: 90
Plant response rating, Pigweed [4]: 70
Pigweed plant response rating (0 to 100 scale, 0 is no effect, 100 is complete control) [4]: 80
Plant response rating, Ragweed [5]: 0
Ragweed plant response rating (0 to 100 scale, 0 is no effect, 100 is complete control) [5]: 30
Plant response rating, Ryegrass, Italian [6]: 30
Ryegrass, Italian plant response rating (0 to 100 scale, 0 is no effect, 100 is complete control) [6]: 60
Galium plant response rating [7, 19]: 30
Plant response rating, Galium [7, 20]: 60
Kochia plant response rating (Kochia (Kochia scoparia) [8]; [19]): 20
Plant response rating, Kochia (Kochia (Kochia scoparia) [8]; [20]): 50
Barnyardgrass plant response rating [9, 19]: 60
Plant response rating, Barnyardgrass [9, 20]: 80
Blackgrass plant response rating [10, 19]: 30
Plant response rating, Blackgrass [10, 20]: 50
Corn plant response rating (corn (Zea mays); [19]): 0
Plant response rating, Corn (corn (Zea mays); [20]): 20
Foxtail, Giant plant response rating [11, 19]: 90
Plant response rating, Foxtail, Giant [11, 20]: 90
Pigweed plant response rating [12, 19]: 20
Plant response rating, Pigweed [12, 20]: 40
Ragweed plant response rating [13, 19]: 0
Plant response rating, Ragweed [13, 20]: 0
Ryegrass, Italian plant response rating [14, 19]: 20
Plant response rating, Ryegrass, Italian [14, 20]: 40
Wheat plant response rating [15, 19]: 0
Plant response rating, Wheat [15, 20]: 20
Plant response rating, Barnyardgrass [16]: 40
Plant response rating, Ducksalad [17]: 100
Plant response rating, Rice (rice (Oryra sativa)): 0
Plant response rating, Sedge, Umbrella [18]: 0

O=C1NCC(c2cc(C(F)(F)F)ccc2F)C1C(=O)Nc1ccc(F)cc1F (stereo not drawn) [Compound 595]
Plant response rating, Kochia (Kochia (Kochia scoparia) [1]): 40
Kochia plant response rating (0 to 100 scale, 0 is no effect, 100 is complete control) (Kochia (Kochia scoparia) [1]): 50
Plant response rating, Barnyardgrass [2]: 90
Barnyardgrass plant response rating (0 to 100 scale, 0 is no effect, 100 is complete control) [2]: 90
Plant response rating, Foxtail, Giant [3]: 90
Foxtail, Giant plant response rating (0 to 100 scale, 0 is no effect, 100 is complete control) [3]: 90
Plant response rating, Pigweed [4]: 30
Pigweed plant response rating (0 to 100 scale, 0 is no effect, 100 is complete control) [4]: 30
Plant response rating, Ragweed [5]: 0
Ragweed plant response rating (0 to 100 scale, 0 is no effect, 100 is complete control) [5]: 30
Plant response rating, Ryegrass, Italian [6]: 20
Ryegrass, Italian plant response rating (0 to 100 scale, 0 is no effect, 100 is complete control) [6]: 40
Plant response rating, Galium [7, 21]: 0
Plant response rating, Galium [7, 20]: 20
Plant response rating, Kochia (Kochia (Kochia scoparia) [8]; [21]): 0
Plant response rating, Kochia (Kochia (Kochia scoparia) [8]; [20]): 30
Plant response rating, Barnyardgrass [9, 21]: 90
Plant response rating, Barnyardgrass [9, 20]: 90
Plant response rating, Blackgrass [10, 21]: 20
Plant response rating, Blackgrass [10, 20]: 40
Plant response rating, Corn (corn (Zea mays); [21]): 30
Plant response rating, Corn (corn (Zea mays); [20]): 60
Plant response rating, Foxtail, Giant [11, 21]: 90
Plant response rating, Foxtail, Giant [11, 20]: 90
Plant response rating, Pigweed [12, 21]: 20
Plant response rating, Pigweed [12, 20]: 30
Plant response rating, Ragweed [13, 21]: 0
Plant response rating, Ragweed [13, 20]: 0
Plant response rating, Ryegrass, Italian [14, 21]: 20
Plant response rating, Ryegrass, Italian [14, 20]: 40
Plant response rating, Wheat [15, 21]: 30
Plant response rating, Wheat [15, 20]: 50
Plant response rating, Barnyardgrass [16]: 50
Plant response rating, Ducksalad [17]: 80
Plant response rating, Rice (rice (Oryra sativa)): 20
Plant response rating, Sedge, Umbrella [18]: 70
